# Results taken from patent US20070123546A1, “2-amino-7,8-dihydro-6H-pyrido[4,3-d]pyrimidin-5-ones” (Chiron Corporation, priority 2005, published 2007).
# pIC50: −log10 of the molar value.
# Molecular target: His-tagged N-terminal ATP binding domain (amino acid residues 9-236) of HSP90α (Homo sapiens, UniProt P07900)
# Experiment: HSP90 inhibitor binding potency: TRF competition binding assay
# Settings: Table 1; competition with biotinylated radicicol
# Procedure: HSP90 Inhibitor Binding Potency: TRF Binding Assay
# In this example, the binding potency of HSP90 inhibitors as measured by a TRF binding assay is described.
# TRF competition binding assays were performed to determine the binding potency (IC50 values) of HSP90 inhibitors. Purified His-tagged N-terminal ATP binding domain (amino acid residues 9-236) of HSP90α (HSP90α GeneID: 3320; mRNA Sequence NM_005348) was incubated for two hours at room temperature in binding buffer (50 mM HEPES, 6 mM MgCl2, 20 mM KCl and 0.1% BSA) with biotinylated radicicol and progressively higher concentrations of the competing compounds. A fraction of the mixture was transferred to capture plates (coated with streptavidin) and incubated for one hour at room temperature. After washing with DELFIA wash buffer, europium-labeled anti-his antibody was added and incubated for two hours at room temperature, followed by washing with DELFIA buffer. DELFIA enhancement solution was then added. After gentle shaking for 10 minutes, the plates were read in VICTOR for europium counts.
row,pIC50,SMILES
1,> 5.00,"COc1ccccc1-c1cc(F)ccc1C1Cc2nc(N)nc(C)c2C(=O)N1 (centres unmarked) [Compound 23, 2-Amino-7-(5-fluoro-2′-methoxy-biphenyl-2-yl)-4-methyl-7,8-dihydro-6H-pyrido[4,3-d]pyrimidin-5-one]"
2,> 5.00,"Cc1nc(N)nc2c1C(=O)NC(c1ccc(F)cc1-c1cnn(C)c1)C2 (centres unmarked) [Compound 30, 2-Amino-7-[4-fluoro-2-(1-methyl-1H-pyrazol-4-yl)-phenyl]-4-methyl-7,8-dihydro-6H-pyrido[4,3-d]pyrimidin-5-one]"
3,> 5.00,"Cc1nc(N)nc2c1C(=O)NC(c1ccc(F)cc1-c1cccnc1)C2 (centres unmarked) [Compound 28, 2-Amino-7-(4-fluoro-2-pyridin-3-yl-phenyl)-4-methyl-7,8-dihydro-6H-pyrido[4,3-d]pyrimidin-5-one]"
4,> 5.00,"Cc1nc(N)nc2c1C(=O)NC(c1ccc(F)cc1-c1cncc3ccccc13)C2 (centres unmarked) [Compound 18, 2-Amino-7-(4-fluoro-2-isoquinolin-4-yl-phenyl)-4-methyl-7,8-dihydro-6H-pyrido[4,3-d]pyrimidin-5-one]"
5,< 5.00,"COc1ncccc1-c1cc(F)ccc1C1Cc2nc(N)nc(C)c2C(=O)N1 (centres unmarked) [Compound 25, 2-Amino-7-[4-fluoro-2-(2-methoxy-pyridin-3-yl)-phenyl]-4-methyl-7,8-dihydro-6H-pyrido[4,3-d]pyrimidin-5-one]"
6,< 5.00,"COc1cccc(-c2cc(F)ccc2C2Cc3nc(N)nc(C)c3C(=O)N2CC(C)(C)N2CCOCC2)c1 (centres unmarked) [Compound 39, 2-Amino-7-(5-fluoro-3′-methoxy-biphenyl-2-yl)-4-methyl-6-(2-methyl-2-morpholin-4-yl-propyl)-7,8-dihydro-6H-pyrido[4,3-d]pyrimidin-5-one]"

# Same assay, conditions: Table 2; competition with biotinylated radicicol
row,pIC50,SMILES
1,> 5.00,"CCOc1cncc(-c2cc(F)ccc2[C@H]2Cc3nc(N)nc(CC)c3C(=O)N2)n1 [Compound 86, (R)-2-Amino-7-[2-(6-ethoxy-pyrazin-2-yl)-4-fluoro-phenyl]-4-ethyl-7,8-dihydro-6H-pyrido[4,3-d]pyrimidin-5-one]"
2,> 5.00,"CCc1nc(N)nc2c1C(=O)N[C@@H](c1ccc(F)cc1-c1cccc(OC)n1)C2 [Compound 81, (R)-2-Amino-4-ethyl-7-[4-fluoro-2-(6-methoxy-pyridin-2-yl)-phenyl]-7,8-dihydro-6H-pyrido[4,3-d]pyrimidin-5-one]"
3,> 5.00,COc1ncc(-c2ccccc2[C@H]2Cc3nc(N)nc(C)c3C(=O)N2)nc1OC [Compound 68]
4,> 5.00,"COc1nc(-c2ccccc2[C@H]2Cc3nc(N)nc(C)c3C(=O)N2)ccc1N [Compound 45, (R)-2-Amino-7-[2-(5-amino-6-methoxy-pyridin-2-yl)-phenyl]-4-methyl-7,8-dihydro-6H-pyrido[4,3-d]pyrimidin-5-one]"
5,> 5.00,CCOc1cccc(-c2cc(F)ccc2[C@H]2Cc3nc(N)nc(C)c3C(=O)N2)n1 [Compound 74]

# Same assay, conditions: Table 3; competition with biotinylated radicicol
row,pIC50,SMILES
1,> 5.00,"COc1nc(-c2cc(F)ccc2[C@H]2Cc3nc(N)nc(C)c3C(=O)N2CC(C)C)cnc1N [Compound 163, (R)-2-Amino-7-[2-(5-amino-6-methoxy-pyrazin-2-yl)-4-fluoro-phenyl]-6-isobutyl-4-methyl-7,8-dihydro-6H-pyrido[4,3-d]pyrimidin-5-one]"
2,> 5.00,"COc1cncc(-c2cc(F)ccc2[C@H]2Cc3nc(N)nc(C)c3C(=O)N2Cc2ccc(F)cc2)n1 [Compound 161, (R)-2-Amino-6-(4-fluoro-benzyl)-7-[4-fluoro-2-(6-methoxy-pyrazin-2-yl)-phenyl]-4-methyl-7,8-dihydro-6H-pyrido[4,3-d]pyrimidin-5-one]"
3,> 5.00,"COc1cccc(-c2cc(F)ccc2[C@H]2Cc3nc(N)nc(C)c3C(=O)N2CC(C)C)n1 [Compound 155, (R)-2-Amino-7-[4-fluoro-2-(6-methoxy-pyridin-2-yl)-phenyl]-6-isobutyl-4-methyl-7,8-dihydro-6H-pyrido[4,3-d]pyrimidin-5-one]"

# Further lines, the compound ahead of its results:
row,SMILES,pIC50
1,"COc1cccc(-c2cc(F)ccc2[C@H]2Cc3nc(N)ncc3C(=O)N2)n1 [Compound 96, (R)-2-Amino-7-[4-fluoro-2-(6-methoxy-pyridin-2-yl)-phenyl]-7,8-dihydro-6H-pyrido[4,3-d]pyrimidin-5-one]",> 5.00
2,"COc1cncc(-c2cc(F)ccc2[C@H]2Cc3nc(N)nc(C)c3C(=O)N2Cc2ccccc2Cl)n1 [Compound 130, (R)-2-Amino-6-(2-chloro-benzyl)-7-[4-fluoro-2-(6-methoxy-pyrazin-2-yl)-phenyl]-4-methyl-7,8-dihydro-6H-pyrido[4,3-d]pyrimidin-5-one]",> 5.00
3,"Cc1nc(N)nc2c1C(=O)N(CCC(C)C)[C@@H](c1ccc(F)cc1-c1cccnc1F)C2 [Compound 151, (R)-2-Amino-7-[4-fluoro-2-(2-fluoro-pyridin-3-yl)-phenyl]-4-methyl-6-(3-methyl-butyl)-7,8-dihydro-6H-pyrido[4,3-d]pyrimidin-5-one]",> 5.00
4,"COc1cccc(-c2cc(F)ccc2[C@H]2Cc3nc(N)nc(C)c3C(=O)N2Cc2ccncc2)n1 [Compound 120, (R)-2-Amino-7-[4-fluoro-2-(6-methoxy-pyridin-2-yl)-phenyl]-4-methyl-6-pyridin-4-ylmethyl-7,8-dihydro-6H-pyrido[4,3-d]pyrimidin-5-one]",> 5.00
5,"Cc1nc(N)nc2c1C(=O)NC(c1ccc(F)cc1-c1ccccc1C(F)(F)F)C2 (centres unmarked) [Compound 89, 2-Amino-7-(5-fluoro-2′-trifluoromethyl-biphenyl-2-yl)-4-methyl-7,8-dihydro-6H-pyrido[4,3-d]pyrimidin-5-one]",> 5.00
6,"Cc1nc(N)nc2c1C(=O)N(Cc1ccccc1)[C@@H](c1ccc(F)cc1-c1cccc(F)c1F)C2 [Compound 138, (R)-2-Amino-6-benzyl-4-methyl-7-(5,2′,3′-trifluoro-biphenyl-2-yl)-7,8-dihydro-6H-pyrido[4,3-d]pyrimidin-5-one]",> 5.00
7,"CCN1C(=O)c2c(C)nc(N)nc2C[C@@H]1c1ccc(F)cc1-c1cncc(OC)n1 [Compound 108, (R)-2-Amino-6-ethyl-7-[4-fluoro-2-(6-methoxy-pyrazin-2-yl)-phenyl]-4-methyl-7,8-dihydrp-6H-pyrido[4,3-d]pyrimidin-5-one]",> 5.00
8,"COc1cncc(-c2cc(F)ccc2[C@H]2Cc3nc(N)nc(C)c3C(=O)N2CC2CCOCC2)n1 [Compound 131, (R)-2-Amino-7-[4-fluoro-2-(6-methoxy-pyrazin-2-yl)-phenyl]-4-methyl-6-(tetrahydro-pyran-4-ylmethyl)-7,8-dihydro-6H-pyrido[4,3-d]pyrimidin-5-one]",> 5.00
9,"COc1cccc(-c2cc(F)ccc2[C@H]2Cc3nc(N)nc(C)c3C(=O)N2Cc2ccccc2F)n1 [Compound 123, (R)-2-Amino-6-(2-fluoro-benzyl)-7-[4-fluoro-2-(6-methoxy-pyridin-2-yl)-phenyl]-4-methyl-7,8-dihydro-6H-pyrido[4,3-d]pyrimidin-5-one]",> 5.00
10,"COc1cncc(-c2cc(F)ccc2[C@H]2Cc3nc(N)nc(C)c3C(=O)N2Cc2ccncc2)n1 [Compound 121, (R)-2-Amino-7-[4-fluoro-2-(6-methoxy-pyrazin-2-yl)-phenyl]-4-methyl-6-pyridin-4-ylmethyl-7,8-dihydro-6H-pyrido[4,3-d]pyrimidin-5-one]",> 5.00

# Same assay, conditions: Table 4; competition with biotinylated radicicol
row,pIC50,SMILES
1,> 5.00,"COc1nc(-c2ccccc2[C@H]2Cc3nc(N)ncc3C(=O)N2)cnc1N [Compound 229, (R)-2-Amino-7-[2-(5-amino-6-methoxy-pyrazin-2-yl)-phenyl]-7,8-dihydro-6H-pyrido[4,3-d]pyrimidin-5-one]"
2,≤ 5.00,"Cc1nc(N)nc2c1C(=O)N[C@@H](c1ccc(F)cc1-c1nccc(N3CCCC3)n1)C2 [Compound 207, (R)-2-Amino-7-[4-fluoro-2-(4-pyrrolidin-1-yl-pyrimidin-2-yl)-phenyl]-4-methyl-7,8-dihydro-6H-pyrido[4,3-d]pyrimidin-5-one]"
3,> 5.00,"CCc1nc(-c2ccccc2[C@H]2Cc3nc(N)nc(C)c3C(=O)N2)cnc1N [Compound 235, (R)-2-Ammo-7-[2-(5-amino-6-ethyl-pyrazin-2-yl)-phenyl]-4-methyl-7,8-dihydro-6H-pyrido[4,3-d]pyrimidin-5-one]"
4,> 5.00,"COc1nc(-c2cc(F)ccc2[C@H]2Cc3nc(N)ncc3C(=O)N2)ccc1N [Compound 208, (R)-2-Amino-7-[2-(5-amino-6-methoxy-pyridin-2-yl)-4-fluoro-phenyl]-7,8-dihydro-6H-pyrido[4,3-d]pyrimidin-5-one]"
5,> 5.00,"CCOc1ccnc(-c2cc(F)ccc2[C@H]2Cc3nc(N)nc(C)c3C(=O)N2)n1 [Compound 193, (R)-2-Amino-7-[2-(4-ethoxy-pyrimidin-2-yl)-4-fluoro-phenyl]-4-methyl-7,8-dihydro-6H-pyrido[4,3-d]pyrimidin-5-one]"
6,> 5.00,"COc1cncc(-c2ccccc2[C@H]2Cc3nc(N)ncc3C(=O)N2)n1 [Compound 203, (R)-2-Amino-7-[2-(6-methoxy-pyrazin-2-yl)-phenyl]-7,8-dihydro-6H-pyrido[4,3-d]pyrimidin-5-one]"
7,> 5.00,"COc1cncc(-c2scnc2[C@@H]2Cc3nc(N)nc(C)c3C(=O)N2)n1 [Compound 233, (S)-2-Amino-7-[5-(6-methoxy-pyrazin-2-yl)-thiazol-4-yl]-4-methyl-7,8-dihydro-6H-pyrido[4,3-d]pyrimidin-5-one]"
8,> 5.00,"COc1cncc(-c2cc(F)ccc2[C@H]2Cc3nc(N)ncc3C(=O)N2)n1 [Compound 175, (R)-2-Amino-7-[4-fluoro-2-(6-methoxy-pyrazin-2-yl)-phenyl]-7,8-dihydro-6H-pyrido[4,3-d]pyrimidin-5-one]"
